Data as given in patent US5576311A, “Cyclodextrins as suspending agents for pharmaceutical suspensions” (Pharmos Corporation, priority 1994, dated 1996).
Values after ≈ are worked out from the molar mass of the structure shown. Where two headings read alike, the source gives them in different places. Values belong to the compound of their own block, whether it stands above or below them.

Legend:
[1] = in vivo; cited from earlier work
[2] = Method D: solubilization of LE by cyclodextrins, HPLC before and after centrifugation; format: physicochemical
Protocol: To evaluate solubilization of drugs such as LE by cyclodextrins, LE is continuously mixed with cyclodextrins in various concentrations in water for one week at room temperature. Samples of the resulting suspensions and the soluble fractions of LE are analyzed by high pressure liquid chromatography ("HPLC") before and after centrifugation at 5000 G, respectively (hereinafter referred to as "Method D"). The concentrations of LE are calculated from the area under the curve of the LE peak using known techniques.

[3] = Stability of aqueous suspensions of LE with buffering systems or ionic tonicity agents; format: physicochemical; settings: accepted buffering systems or ionic tonicity agents
[4] = in vivo; cited from earlier work; remark: listed apart in the source
[5] = HPLC measurement of concentration of LE in cyclodextrin suspensions after storage; format: physicochemical
[6] = 25° C.; cited from earlier work
glucocorticoid receptors = settings: cited from earlier work

solubility at 168 h ([2]; water with 0.5% hpcd, 0.5% HPCD, water, one week, room temperature, read-out: LE Solubilized): 7 µg/mL (≈ 15 µM) | solubility at 168 h ([2]; water with 1.0% bcd, 1.0% BCD, water, one week, room temperature, read-out: LE Solubilized): 10 µg/mL (≈ 21.4 µM) | solubility at 168 h ([2]; water with 1.0% hecd, 1.0% HECD, water, one week, room temperature, read-out: LE Solubilized): 10 µg/mL (≈ 21.4 µM) | solubility at 168 h ([2]; water with 1.0% hpcd, 1.0% HPCD, water, one week, room temperature, read-out: LE Solubilized): 5 µg/mL (≈ 10.7 µM) | solubility at 168 h ([2]; water with cyclodextrin, all cyclodextrins of Table 3, read-out: LE solubilized by cyclodextrins): ≤ 10 µg/mL | obtaining stable aqueous suspensions [3]: cannot be obtained | [LE] measurement (% of label) ([5]; 5 mg/ml label, BCD 1%, 23 C, 4.0 mos, 172800 min): 106.78 % of label | [LE] measurement (% of label) ([5]; 5 mg/ml label, HECD 1%, 23 C, 4.0 mos, 172800 min): 104.26 % of label | [LE] measurement (% of label) ([5]; 5 mg/ml label, HPCD 0.5%, 23 C, 5.0 mos, 216000 min): 101.12 % of label | [LE] measurement (% of label) ([5]; 5 mg/ml label, HPCD 1%, 23 C, 0.5 mos, 21600 min): 94.3 % of label | [LE] measurement (% of label) ([5]; 5 mg/ml label, HPCD 1%, 23 C, 5.0 mos, 216000 min): 115.45 % of label | [LE] measurement (% of label) ([5]; 5 mg/ml label, HPCD 1%, 37 C, 2.0 mos, 86400 min): 104.04 % of label | [LE] measurement (% of label) ([5]; 5 mg/ml label, HPCD 1%, 45 C, 2.0 mos, 86400 min): 96.84 % of label | [LE] measurement (% of label) ([5]; 10 mg/ml label, BCD 1%, 23 C, 4.0 mos, 172800 min): 105.7 % of label | [LE] measurement (% of label) ([5]; 10 mg/ml label, HECD 1%, 23 C, 4.0 mos, 172800 min): 135.88 % of label | [LE] measurement (% of label) ([5]; 10 mg/ml label, HPCD 0.5%, 23 C, 5.0 mos, 216000 min): 109.09 % of label | [LE] measurement (% of label) ([5]; 10 mg/ml label, HPCD 1%, 23 C, 0.5 mos, 21600 min): 88.18 % of label | [LE] measurement (% of label) ([5]; 10 mg/ml label, HPCD 1%, 23 C, 5.0 mos, 216000 min): 110.23 % of label | concentration of LE in the suspension (in words) ([5]; Table 4 storage): not significantly altered
SMILES: CCOC(=O)O[C@]1(C(=O)OCCl)CC[C@H]2[C@@H]3CCC4=CC(=O)C=C[C@]4(C)[C@H]3[C@@H](O)C[C@@]21C [LE, loteprednol etabonate]
risk of steroid induced cataracts and elevation of intra-ocular pressure [1]: reducing the risk of steroid induced cataracts and elevation of intra-ocular pressure | efficacy relative to prednisolone acetate [4]: efficacy similar to its parent compound, namely, prednisolone acetate | ocular anti-inflammatory activity [4]: has ocular anti-inflammatory activity

SMILES: OC[C@H]1O[C@@H]2O[C@H]3[C@H](O)[C@@H](O)[C@@H](O[C@H]4[C@H](O)[C@@H](O)[C@@H](O[C@H]5[C@H](O)[C@@H](O)[C@@H](O[C@H]6[C@H](O)[C@@H](O)[C@@H](O[C@H]7[C@H](O)[C@@H](O)[C@@H](O[C@H]8[C@H](O)[C@@H](O)[C@@H](O[C@H]1[C@H](O)[C@H]2O)O[C@@H]8CO)O[C@@H]7CO)O[C@@H]6CO)O[C@@H]5CO)O[C@@H]4CO)O[C@@H]3CO [β-Cyclodextrin, β-cyclodextrin]
aqueous solubility [6]: about 1.8 % w/v

SMILES: CCOC(=O)OC1(C(=O)O)CCC2C3CCC4=CC(=O)C=CC4(C)C3C(O)CC21C (stereo not drawn) [PJ-91]
binding to glucocorticoid receptors (glucocorticoid receptors): does not bind to glucocorticoid receptors
